These results are taken from patent US20120065126A1, “Pharmaceutical Compositions Containing Antifungal Peptides” (BASF SE, priority 2009, published 2012).

Ends that are not written are not given here.

Experiment [1] has as its system Malassezia furfur. In words: Growth inhibition at equal concentrations by weight of P18, zinc pyrithione, climbazole, ketoconazole (CFU). Format: cell-based. The protocol: (§1) The studies described hereinafter were conducted on the Malassezia furfur strain DSM 6170.
For this purpose, the procedure was as follows:
(§2) The growth test was effected as follows: a shake culture containing M472 Pityrosporum medium was inoculated with M. furfur and incubated with shaking at 30° C. and 200 rpm overnight.
A 96-well microtiter plate was filled with 100 μl per well of M472 Pityrosporum medium and inoculated with M. furfur suspension from the overnight culture. The M. furfur suspension was adjusted at the start of the experiment to an optical density, measured at 600 nm, of 0.02. The concentrates of the inhibitor solutions were 1 mM in DMSO for P18 peptide and 10 mM in DMSO for zinc pyrithione, ketoconazole and climbazole. The final DMSO concentration was kept the same in all experiments.
The following growth was compared by measuring the optical density: • M. furfur suspension and addition of the P18 solution with a final concentration of 50 μM (corresponds to 0.0115% (w/w)) • M. furfur suspension and addition of the zinc pyrithione (ZPT) solution with a final concentration of 362 μM (comparison to the mixture containing 50 μM P18 peptide) • M. furfur suspension and addition of the ketoconazole solution with a final concentration of 216 μM (comparison to the mixture containing 50 μM P18 peptide) • M. furfur suspension and addition of the climbazole solution with a final concentration of 390 μM (comparison to the mixture containing 50 μM P18 peptide)
The microtiter plate was incubated with shaking at 30° C.
[…] After incubation over the course of 6 days, the colonies on the plate were counted. The CFU was determined in order to rule out any influence of the biphasic medium, and also the growth form of M. furfur, on the optical density. The experiments were each conducted in double determination, at least in two independent experiments.

Experiment [2] relates to M. furfur DSM 6170. In words: Comparison of further inventive peptides and AFPP (CFU). To be noted: 0.3%; 10 minutes. It is filed as cell-based, Malassezia furfur. The text has this:
In order to compare the effect of other inventive peptides with the effect of the antifungal polypeptide AFPP from Aspergillus giganteus on the growth of Malassezia furfur, the procedure was as follows:
As a comparison, the peptide variants with SEQ ID NO. 4726 (sequence: FKKALHLFKPIKKFLKWK-NH2 (Bachem AG, Switzerland)) and SEQ ID NO. 4727 (sequence: KFLHLAKKFPKWKLFKKI-NH2 (Bachem AG, Switzerland)) were selected. The peptide and AFPP concentrates were in the form of 2% (w/w) solutions in phosphate buffer (10 mM sodium phosphate, pH 7.5, 100 mM NaCl). […]
For each test mixture, a 1.5 ml reaction vessel was filled with Pityrosporum medium and inoculated with the M. furfur overnight culture to give a start OD of 0.1, measured at 600 nm.
The growth of the following test mixtures was monitored: • M. furfur suspension and addition of 90 μl of phosphate buffer (in order to rule out any influence of the phosphate buffer on the effect of the active peptides at a final concentration of 0.3%) • M. furfur suspension with a final concentration of the inventive peptide variant with SEQ ID NO. […]
The reaction volume was 600 μl in each case. […] The CFU (colony forming units) were determined by counting after incubation at 30° C. for 6 days. […]

Experiment [3] relates to M. furfur. The experiment in a line: Effect of P18 variants (CFU). Format: cell-based, Malassezia furfur. To be noted: 50 μM peptide, with DMSO; 24 h. The protocol:
as §1
The inhibitory effect of the following P18 variants on M. furfur was studied:
as §2
A 96-well microtiter plate was filled with 100 μl per well of M472 Pityrosporum medium and inoculated with M. furfur suspension from the overnight culture. The M. furfur suspension was adjusted at the start of the experiment to an optical density, measured at 600 nm, of 0.1.
The peptide variants were dissolved with a final concentration of 1 mM in dimethyl sulfoxide (DMSO). It is also possible to dispense with DMSO and to use a purely aqueous peptide solution. 5 μl of this solution were added to 100 μl of M. furfur suspension (final concentration of the P18 peptide 50 μM). In a control mixture, the same amount of DMSO without P18 peptide was added.
The microtiter plate was incubated with shaking at 30°.
After 24 h, the colony forming units (CFU) were determined by streaking 10 μl of each of the suspensions and, after incubation over the course of 6 days, counting the colonies. Two independent experiments each with three identical mixtures were conducted, and the number of colony forming units was averaged.

With `CC(C)(C)C(=O)C(Oc1ccc(Cl)cc1)n1ccnc1` (centres unmarked) [climbazole], the “Colony forming units (CFU)” value in experiment [1] (final conc. 390 μM, 24 h) is listed as 137 ± 33 CFU; in experiment [1] (final conc. 390 μM, 40 h) it was 35 ± 15 CFU.

Consider `CC(=O)N1CCN(c2ccc(OCC3COC(Cn4ccnc4)(c4ccc(Cl)cc4Cl)O3)cc2)CC1` (centres unmarked) [ketoconazole], for which the “Colony forming units (CFU)” value in experiment [1] (final conc. 216 μM, 24 h) turned out to be 84 ± 76 CFU; in experiment [1] (final conc. 216 μM, 40 h) it was 9 ± 5 CFU.

Regarding “FKKALHLFKPIKKFLKWK-NH2 [Peptide variant SEQ ID NO. 4726]”, the “Colony forming units after the incubation time specified” value in experiment [2] is listed as 3 ± 1 CFU.

Regarding H-KWKLFKKIPKFLHLAKKF-OH [P18-OH], the “Averaged number of colony forming units (CFU)” value in experiment [3] is recorded as 3 CFU.

Regarding H-PKWKLFKKIPKFLHLAKKFD-OH [P18AC-OH], in experiment [3], the “Averaged number of colony forming units (CFU)” value is 37 CFU.

With “KFLHLAKKFPKWKLFKKI-NH2 [Peptide variant SEQ ID NO. 4727]”, the “Colony forming units after the incubation time specified” value in experiment [2] came to 59 ± 46 CFU.
